How the values were obtained:
Format in all cases: in vivo, rat
rats [1] = experiment: Systemic inflammatory hyperalgesia induced by intraperitoneal ET; PP and TF tests; conditions: TAP 25 μg i.p. thirty minutes before ET 50 μg i.p.
Method: In the second model, the rats receive an intraperitoneal injection of endotoxin ([…] in 100 μl of physiological saline solution).
Protocol 2(a): One group of rats received one intraperitoneal injection of ET (50 μg), while the other group was pretreated with the protein analogue of thymuline (TAP) (25 μg, intraperitoneal injection), 30 minutes before the injection of ET.
The TF and PP tests were then done at 1 hour, 3 hours and 6 hours after the injection of ET.

rats [2] = experiment: Daily treatment with TAP in neuropathic rats (model not stated, FIG. 11); conditions: TAP 1 μg in 100 μL daily over 5 consecutive days
rats [3] = experiment: Localized inflammatory hyperalgesia induced by intraplantar injection of endotoxin (ET); PP, PI, HP, TF pain tests
Method: The experiments were conducted using adult, male Sprague-Dewless rats weighing between 200 and 250 g. The animals were reared under optimum conditions of light and temperature (12 h light and shadow cycle; 22±3° C.). Food and water were dispensed ad libitum. All of the experiments were conducted in compliance with the ethical directives relative to pain experiments done on animals in the conscious state (Zimmermann M., 1983, Ethical guidelines for investigations of experimental pain in conscious animals, Pain, 16:109-110) and they were approved by the Institutional Review Board for animal care.
Thermal and mechanical pain tests were done over a period of 3 consecutive days prior to the injections, in order to establish a baseline.
The mechanical nociceptive threshold was determined by the mechanical paw pressure test (PP), while that of the thermal nociceptive threshold was determined using the hot-plate (HP), the paw immersion in hot water (PI) and the tail flick (TF) tests.
The PP test is done by applying a constant pressure of 0.20 g/cm^2 alternatingly to the left and right hind paws in an interval of 5 minutes between 2 consecutive pressure applications.
In the HP test, the animals are placed individually on a hot plate (52.5° C.±0.3° C.). The pain threshold is measured by the latency period lapsed between the moment, at which the animal is placed on the hot plate and the first sign of pain, indicated by the fact that the animal licks the paw or jumps.
In the PI test, the hind paws are wetted alternately in distilled water at 48° C. and the latency time lapsed until the first sign of withdrawal of the paw is noted.
In the TF test, the tail of each animal is immersed in distilled water at 50.5° C. The latency time taken by the animal to withdraw it is noted. The results are based on 3 consecutive trials done in 5 minute intervals.
In the so-called localized model, the rats received on intraplantar injection of a solution (1.25 μg in 50 μl of […]) of endotoxin (Salmonella typhasa lipopolysaccharides, Sigma) into one of the hind paws, which induces both thermal and mechanical hyperalgesia restricted to the paw having received the injection.
Various treatments are then possible • Protocol 1(a): different groups of rats (n=5 in each group) were treated with the analogue peptide (TAP) Glu-Ala-lys-Ser-Gln-Gly-Gly-Ser-Asp (synthesized by Quantum Biotechnologies, Inc., Canada), in the following fashion : • either, they received one intraperitoneal injection (25 μg in 50 μl of physiological saline solution) of this peptide; • or, they were pretreated with different doses of this peptide (1.5 and 25 μg in 50 μl of sodium chloride) by intraperitoneal injection, 30 minutes prior to injection of endotoxins (ET) (1.25 μg in 50 μl of physiological saline solution by intraplantar injection). • Protocol 1(b): other experiments looked at comparing the efficacy of the analog peptides with that of steroids, NSAIDs and peptides known for their antagonism of the hyperalgesia induced by IL-1β and the prostaglandins.
One group of rats was pretreated with intraperitoneal injections of Lys-D-Pro-Thr (10 mg/kg) in 100 μl of physiological saline solution, 30 minutes prior to injection of TAP. This tripeptide is know for its antagonism of the hyperalgesia induced by IL-1β only.
In the second group, the rats received intraperitoneal injections of the Lys-D-Pro-Val tripeptide (10 mg/kg) in 100 μl of saline solution, 30 minutes prior to the injection of TAP. Lys-D-Pro-Val is an antagonist of the hyperalgesia induced by IL-1β and PEG2.
A third and a fourth group were treated with dexamethasone and indomethacin.
Dexamethasone phosphate dissolved in a […] sodium solution was injected, at a concentration of 200 μg/kg, just before and 3 hours after the injection of ET. […]

rats [4] = experiment: Hyperalgesia induced by intraplantar injection of capsaicin; PP, HP, PI tests
Method: Injection of capsaicin (10 μg in 50 μl of a 10% solution of Tween 20 in olive oil) produced hyperalgesia, whose peak was at three to six hours after injection and which disappeared at the end of 24 hours. Mechanical hyperalgesia was evaluated using the paw pressure test (PP), which consists in applying a constant pressure of 0.2 kg/cm on the dorsal part of the hind paw. The time lapsed between the application of the pressure and the nociceptive reflex of retraction of the paw was considered as the latency time (or threshold) of mechanical nociceptive. Thermal hyperalgesia was evaluated using the hot-plate (HP) test and the paw immersion (PI) test.
The HP and PI tests were done as in Example 1, the hot-plate having a temperature 52.5±0.3° C. and the hot water container at 48±0.3° C.
The PP and PI tests were done one after the other on the two hind paws observing an interval of five minutes between two consecutive tests.
The rats were sent to the laboratory one week prior to injection so that they would become accustomed to the environment and the tests were done on the rats over two or three days in order to obtain the baseline value for each test before any treatment (detailed description in Kanaan S. A. et al., 1996, Endotoxin-induced local inflammation and hyperalgesia in rats and mice: a new model for inflammatory pain, Pain, 66:373-379).
In the course of the experiments involving the injection […]. of capsaicin, the mean of the measurements done using each pain test (PP, HP or PI) was calculated for each group of rats prior to the injection of the capsaicin (baseline condition) and at different time intervals after injection (3, 6, 9 and 24 hours). TAP was injected (i.p.) thirty minutes before the capsaicin and the latency times of the different pain tests were measured at the same intervals of time after injection of the capsaicin.

Glu-Ala-lys-Ser-Gln-Gly-Gly-Ser-Asp (SQGGSD; N-terminal Glu-Ala-Lys; printed: Ser-Gln-Gly-Gly-Ser-Asp) [TAP]
effect on mechanical hyperalgesia (PP test) (rats [1]; FIG. 4A): abolished | effect on thermal hyperalgesia (TF test) (rats [1]; FIG. 4B): abolished | effect of daily treatment on allodynia (rats [2]; FIG. 11): progressive reduction of the manifestations of the allodynia | effect of daily treatment on the effects of each injection (rats [2]; FIG. 11): potentiation of the effects of each injection | effect of daily treatment on cold allodynia (rats [2]; compared with single injection): increased inhibition of the cold allodynia | effect compared with indomethacin and dexamethasone (rats [3]; ET 1.25 μg intraplantar, indomethacin 4 mg/kg, dexamethasone 200 μg/kg, FIG. 2): effects similar to those of indomethacin and dexamethasone but at much lower concentrations | analgesic efficacy compared with Lys-D-Pro-Val and Lys-D-Pro-Thr peptides (rats [3]; ET 1.25 μg intraplantar, tripeptides 10 mg/kg i.p., FIG. 2): much more efficacious analgesic agent | latency, paw pressure (PP) test (rats [3]; TAP 25 μg i.p. 30 min before ET 1.25 μg intraplantar, 9 h after ET, ET alone 0.87±0.09 s, saline 2.06±0.06 s): 2.05 ± 0.07 s | latency, paw immersion (PI) test (rats [3]; TAP 25 μg i.p. 30 min before ET 1.25 μg intraplantar, 9 h after ET, ET alone 1.25±0.04 s, saline 1.97±0.05 s): 1.94 ± 0.005 s | latency, tail flick (TF) test (rats [3]; TAP 25 μg i.p. 30 min before ET 1.25 μg intraplantar, 9 h after ET, ET alone 2.40±0.06 s, saline 3.19±0.08 s): 3.22 ± 0.09 s | latency, hot-plate (HP) test (rats [3]; TAP 25 μg i.p. 30 min before ET 1.25 μg intraplantar, 9 h after ET, ET alone 6.0±0.18, saline 9.24±0.16 s): 9.12 ± 0.7 s | effect on hyperalgesia induced by intraplantar ET (rats [3]; TAP 1.5 and 25 μg i.p. pretreatment, FIG. 1): reduced in dose-dependent fashion the hyperalgesia | change in latency time in the pain tests, TAP alone (rats [3]; TAP alone 25 μg in 50 μl saline i.p., no ET): did not result in significant change in the latency time | modification of latency times in the pain tests, TAP alone (rats [4]; TAP 25 μg, no capsaicin, FIG. 8 controls): did not result in significant modification | effect on capsaicin-induced hyperalgesia at the more elevated dose (rats [4]; TAP highest dose i.p. before capsaicin 10 μg i.pl.): complete prevention | effect on hyperalgesia induced by intraplantar capsaicin (rats [4]; TAP i.p. 1.5 or 25 μg/rat thirty minutes before capsaicin 10 μg, FIG. 8): dose-dependent attenuation

— patent US20050261194A1, “Use of thymulin-like peptides for making pain-relieving medicines” (priority 2001, published 2005)
